Reference: PubChem BioAssay (NCI)
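Test compounds were applied to cells in 96-well plates for 48 hours at 5 doses. GI50 marks 50% less growth. TGI: concentration producing complete growth inhibition.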

Tests used:
Assay in all cases: inhibition of tumour cell growth, NCI panel, 48 h
CAKI-1 renal = system: CAKI-1 renal
OVCAR-8 ovarian = system: OVCAR-8 ovarian
MOLT-4 leukemia = system: MOLT-4 leukemia
SK-MEL-2 melanoma = system: SK-MEL-2 melanoma
EKVX NSCLC = system: EKVX NSCLC
TK-10 renal = system: TK-10 renal
HCT-116 colon = system: HCT-116 colon
SK-OV-3 ovarian = system: SK-OV-3 ovarian
COLO 205 colon = system: COLO 205 colon
OVCAR-5 ovarian = system: OVCAR-5 ovarian

Structure (SMILES)	GI50 (CAKI-1 renal) [µM]	TGI (CAKI-1 renal) [µM]	GI50 (OVCAR-8 ovarian) [µM]	TGI (OVCAR-8 ovarian) [µM]	GI50 (MOLT-4 leukemia) [µM]	TGI (MOLT-4 leukemia) [µM]	GI50 (SK-MEL-2 melanoma) [µM]	TGI (SK-MEL-2 melanoma) [µM]	GI50 (EKVX NSCLC) [µM]	TGI (EKVX NSCLC) [µM]	GI50 (TK-10 renal) [µM]	TGI (TK-10 renal) [µM]	GI50 (HCT-116 colon) [µM]	TGI (HCT-116 colon) [µM]	GI50 (SK-OV-3 ovarian) [µM]	TGI (SK-OV-3 ovarian) [µM]	GI50 (COLO 205 colon) [µM]	TGI (COLO 205 colon) [µM]	GI50 (OVCAR-5 ovarian) [µM]	TGI (OVCAR-5 ovarian) [µM]
Cc1cc(C)nc(NS(=O)(=O)c2ccc(Nc3nc4nc(NCc5ccccc5)nc(-c5ccc(O)cc5)c4c(=O)[nH]3)cc2)n1	57.2	> 100	36.5	> 100	2.38	12.8	20.7	> 100	35.1	> 100	28	> 100	23.6	> 100	> 100	> 100	81.8	> 100	> 100	> 100
C/C(=N\NC(=O)C[n+]1ccccc1)c1sc(-c2nc(C)c(/C(C)=N/NC(=O)C[n+]3ccccc3)s2)nc1C		> 100		> 100		> 100		> 100		> 100		> 100		> 100		> 100		> 100		> 100
Cc1cc(NCCCNc2ccnc3cc(Cl)ccc23)nc(Nc2ccc(C(=O)N3CCCCC3)cc2)n1	2.51	7.38	3.61	12.4	2.86	13.5	2.17	4.29	3.65	16	1.99	4.59	2.22	5.83	3.14	8.23	1.8	3.62	4.5	18.5
O=c1[nH]ccc2nc(N3CCC(O)CC3)nc(Nc3ccc(N4CCOCC4)cc3)c12	0.367	> 100	> 100	> 100	> 83.8	> 100	2.27	> 100	> 38.3	> 100	> 26.3	> 100	0.736	> 100	0.59	> 100	1.71	5.05	3.38	> 100
COc1ccc(-c2cc(=O)c3c(OC)c(O)c(OC)cc3o2)cc1		> 100		> 100		> 100		> 100		> 100		94		> 100		> 100		> 100		> 100
Cc1cc(Cl)ccc1NC(=O)C1C(=O)C(=O)N(c2ccc(Cl)cc2C)C1=O (centres undefined)		> 100		> 100		> 100		> 100		> 100		> 100		> 100		> 100		> 100		> 100
O=C(/C=C/c1ccccc1)Nc1ncc(Cc2ccccc2)s1	0.0902	> 50.2	0.488	> 40.9	0.345	> 100	0.479	> 69.1	0.44	> 100	1.34	> 46.4	0.141	> 33.4	0.458	6.24	0.288	2.13	0.469	35.8
CCOc1cccc2sc(N)nc12		> 100		> 100		> 100		> 100		> 100		> 100		> 100		> 100		> 100		> 100
COC(=O)c1ccc(CS(=O)(=O)c2ccccc2)cc1		> 100		> 100		> 100		> 100		> 100		> 100		> 100		> 100		> 100		> 100
O=c1ncc(I)c[nH]1	> 100	> 100	> 100	> 100	> 100	> 100	> 100	> 100	> 100	> 100	> 100	> 100	> 100	> 100	> 100	> 100	> 100	> 100	> 100	> 100
Cc1ccc(C(=O)Nc2ccc(CN3CCN(C)CC3)c(C(F)(F)F)c2)cc1C#Cc1cnc(N)c2ccc(C#N)cc12	0.0865	8.48	0.541	> 11.7	0.105	> 12	0.0327	9.51	9.46	> 50	0.625	5.75	0.167	7.3	0.0981	12.8	0.28	> 46.5	5.85	16.4
COc1ccc(-c2c(-c3cc4c(c(OC)c3OC)OCO4)noc2N)cc1	0.404	> 100	0.455	> 56.1	0.621	> 100	0.235		4.12	> 100	0.343	> 100	0.34	15.9	0.34	14.3	0.277	1.25	2.43	> 100
COc1ccc2c3c(ccc2c1)NC(C(=O)O)CC3 (centres undefined)		> 100		> 100		56.9		> 100		> 100		> 100		> 100		> 100		> 100		> 100
C/C(=N\NC(=O)c1cccc(S(=O)(=O)N2CCN(C)CC2)c1)c1cc(Cl)ccc1O	0.567	27.5	0.494	> 100	0.47	> 49.4	3.46	> 72.6	0.354	> 63.1	0.491	> 88.6	0.48	> 76.2	0.938	> 54.6	0.387	15.3	1.86	> 100
